This note sets out measurements from patent US11548919B1, “SARS-CoV-2 polypeptide inhibitors directed against the Env TM domain and methods of treatment using said inhibitors” (priority 2022, dated 2023).

This assay concerns SARS-CoV-2 Omicron variant pseudovirus. It counts as cell-based. Particulars: for fluorescence of peptide groups versus no-peptide control: N=3.

“Also recorded” adds a separate entry of the source. Square brackets hold non-standard residues; d marks the D form. Ends that are not written are not given here. Nap = naphthyl group, N-terminal cap; Aib = CC(C)(N)C(=O)O

“NapFFMLUFLMUMEKKKK (Nap-FFML[Aib]FLM[Aib]MEKKKK)”: the “inhibition of SARS-CoV-2 Omicron pseudovirus infection / replication in mammalian cells” value was “effectively inhibited viral replication; also recorded: significantly inhibited” and the “fluorescence of peptide groups versus no-peptide control” value is “statistically (p<0.01) less than”.
In the case of “NapFFTLUFLTUTEKKKK (Nap-FFTL[Aib]FLT[Aib]TEKKKK)”, the “inhibition of SARS-CoV-2 Omicron pseudovirus infection / replication in mammalian cells” value is on record as “effectively inhibited viral replication; also recorded: significantly inhibited” and the “fluorescence of peptide groups versus no-peptide control” value was “statistically (p<0.01) less than”.
